# Test results: US20060122101A1, “Drug for preventing, regulating or treating adhesion” (priority 2003, published 2006)
# How the values were obtained:
# [1] = biological target: T1, chymase (Homo sapiens, UniProt P23946); test: Chymase activity in blood vessel tissue of the living body after use during operation; format: in vivo; conditions: 10 μM during the operation; for 4 weeks
# T1 construct: the chymase activity in the blood vessel tissue of the living body; from tissue; host or cells: blood vessel tissue of the living body
# T1 sequence (P23946 22-247): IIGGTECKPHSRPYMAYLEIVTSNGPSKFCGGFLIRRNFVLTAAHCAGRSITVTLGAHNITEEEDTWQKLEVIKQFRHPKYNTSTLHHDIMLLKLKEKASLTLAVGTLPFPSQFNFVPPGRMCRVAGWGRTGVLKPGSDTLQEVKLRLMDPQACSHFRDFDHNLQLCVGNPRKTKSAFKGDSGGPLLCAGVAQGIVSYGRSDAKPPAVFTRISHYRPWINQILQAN
# Description: The medicament of the present invention allows at least one protease inhibitor to be administered in a substantially sufficient amount to permit epithelialization in the site of adhesion formation. […] The effective administration amount of chymase inhibitor (Suc-Val-Pro-L-Phe^P(OPh)2) can be selected in the range of 0.0001 to 100 mg per 1 kg of adult body weight, per one day. For example, it can be administered intravenously by an amount selected in the range from 0.0001 to 100 mg, preferably from 0.01 to 1 mg, and orally by an amount selected in the range from 0.1 to 100 mg, preferably from 0.1 to 10 mg. Furthermore, it can be intravenously applied by an amount in the range from 0.0001 to 1000 mg, preferably from 0.1 to 100 mg.
# [2] = cited from earlier work
# [3] = biological target: human leukocyte elastase (Homo sapiens, UniProt P08246); conditions: cited from earlier work
# [4] = system: chymotrypsin and chymotrypsin-like enzymes; conditions: cited from earlier work
# [5] = system: Cardiac muscle adhesion models; test: Prevention of adhesion by oral administration in hamster cardiac muscle adhesion model; format: in vivo, Syrian hamsters; conditions: 10 mg/kg orally once a day
# Description: Syrian hamsters (SLC Co., Ltd.), 6 weeks of age (weighing 85-90 g), were subject to abdominal middle incision to scrape their hearts. Cardiac muscle adhesion models were prepared. Suc-Val-Pro-Phe^P(OPh)2 (10 mg/kg) (eight cases) or placebo (eight cases) was forcibly orally administered using a canal once a day from the 3rd day before the model preparation to the 14th day after the model preparation. The adhesion levels at the 14th day after the model preparation were compared to study. Adhesion scores are as follows. Student-t test was used to test a significant difference in adhesion core.
# Adhesion level 0: A heart is easily taken out, and the heart exists independently from the circumference, as is similar to a normal heart.
# Adhesion level 1: A heart is observed to adhere to the circumferential tissue at one site by a thin film, but the adhesion site can be simply freed to release the heart.
# Adhesion level 2: A heart is observed to adhere to the circumferential tissue at a few sites, but the adhesion sites can be freed by a traction force to release the heart.
# Adhesion level 3: A heart is firmly adhered, but is distinguishable from, to the circumferential tissue at several sites, and it is hard to release the heart without a strong traction force.
# Adhesion level 4: Excessive cell growth and fibrosis occur around a heart, and the heart is observed to adhere to the circumferential tissue. The heart is so firmly adhered to the circumferential tissue that the heart is difficult to release even by a peeling traction force.
# [6] = 3rd day before to 14th day after model preparation, eight cases
# Sequence of human leukocyte elastase (P08246 30-267): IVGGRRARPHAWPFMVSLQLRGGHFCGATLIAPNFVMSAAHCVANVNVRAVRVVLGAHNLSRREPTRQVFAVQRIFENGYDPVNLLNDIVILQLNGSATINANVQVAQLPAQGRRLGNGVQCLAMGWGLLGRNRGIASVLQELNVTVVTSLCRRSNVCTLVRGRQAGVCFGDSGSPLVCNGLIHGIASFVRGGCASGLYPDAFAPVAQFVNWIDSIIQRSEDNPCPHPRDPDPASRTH
compound,measurement,setting,value
CC(C)C(NC(=O)CCC(=O)O)C(=O)N1CCCC1C(=O)NC(Cc1ccccc1)P(=O)(Oc1ccccc1)Oc1ccccc1 [Suc-Val-Pro-L-Phe^P(OPh)2],suppression of chymase activity in the blood vessel tissue,[1],suppress significantly
same,half-life in human blood plasma,[2],about 20 hours
Boc-Val-Pro-Val^P(OPh)2,inhibitor potency with human leukocyte elastase,[3],relatively potent inhibitors
Meo-Suc-Ala-Ala-Pro-Val^P(OPh)2,inhibitor potency with human leukocyte elastase,[3],relatively potent inhibitors
Suc-Val-Pro-Phe^P(OPh)2,inhibitor potency for chymotrypsin and chymotrypsin-like enzymes,[4],relatively potent inhibitor
same,cases ranked as adhesion level 0,[5]; [6],75%
same,cases ranked as adhesion level 2,[5]; [6],12.5%
same,cases ranked as adhesion level 4,[5]; [6],12.5%
same,adhesion level versus placebo group,"[5]; 14th day, Student-t test",fell down significantly in adhesion level
same,half-life in human blood plasma,[2],about 20 hours
